One assay addresses T1, TLR8 (Homo sapiens, UniProt Q9NR97).
T1 construct: host or cells: HEK-Blue cells (human HEK) co-expressing TLR8 and an NF-kB/AP1-inducible SEAP reporter
T1 sequence (Q9NR97 27-1041): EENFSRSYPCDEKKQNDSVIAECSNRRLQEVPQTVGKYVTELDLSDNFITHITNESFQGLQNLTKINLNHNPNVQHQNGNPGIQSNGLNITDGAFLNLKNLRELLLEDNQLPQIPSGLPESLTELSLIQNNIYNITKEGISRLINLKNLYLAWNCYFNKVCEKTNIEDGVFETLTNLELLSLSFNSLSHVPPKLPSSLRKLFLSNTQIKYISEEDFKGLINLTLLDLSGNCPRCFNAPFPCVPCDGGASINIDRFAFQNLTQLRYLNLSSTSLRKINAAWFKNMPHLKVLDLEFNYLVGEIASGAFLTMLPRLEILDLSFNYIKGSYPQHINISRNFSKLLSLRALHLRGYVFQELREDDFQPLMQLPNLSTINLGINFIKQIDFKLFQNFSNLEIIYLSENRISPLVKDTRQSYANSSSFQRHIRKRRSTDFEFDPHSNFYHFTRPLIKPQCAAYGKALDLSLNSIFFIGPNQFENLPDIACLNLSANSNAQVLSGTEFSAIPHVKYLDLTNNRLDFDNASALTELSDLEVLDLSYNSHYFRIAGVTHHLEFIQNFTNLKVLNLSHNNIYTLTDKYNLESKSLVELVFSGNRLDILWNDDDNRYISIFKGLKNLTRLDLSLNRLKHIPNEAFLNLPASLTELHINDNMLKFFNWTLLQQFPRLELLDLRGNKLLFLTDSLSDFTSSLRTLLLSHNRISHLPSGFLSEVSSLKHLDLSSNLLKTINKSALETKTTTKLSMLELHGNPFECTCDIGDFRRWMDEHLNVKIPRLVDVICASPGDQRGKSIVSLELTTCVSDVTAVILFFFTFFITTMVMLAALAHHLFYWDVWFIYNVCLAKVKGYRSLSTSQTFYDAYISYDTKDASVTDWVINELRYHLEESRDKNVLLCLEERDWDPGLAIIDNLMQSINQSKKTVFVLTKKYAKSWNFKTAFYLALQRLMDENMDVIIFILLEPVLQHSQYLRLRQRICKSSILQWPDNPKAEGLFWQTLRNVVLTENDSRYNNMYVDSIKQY
Briefly: In vitro human TLR8 binding reporter assay (HEK-Blue, NF-kB/AP1-inducible SEAP). In kind it is cell-based. The following applies: activity range symbols. On the procedure: (§1) In Vitro Human TLR7 and TLR8 Binding Reporter Assays
(§2) Logarithmically-growing human HEK-Blue cells co-expressing a TLR7 or TLR8 gene and a NF-kB/AP1-inducible SEAP (secreted embryonic alkaline phosphatase; Invivogen, San Diego, CA) reporter gene are added to individual wells of a 384-well plate (15,000 cells per 20 μL per well) and maintained for 24 h at 37° C., 5% CO2. Test compounds or DMSO are distributed to separate wells the next day using acoustic liquid handling technology (100 nL per well) and cells are subsequently incubated for 18 h at 37° C., 5% CO2. Cellular SEAP production is measured using an Envision plate reader instrument thirty minutes after adding freshly-made Quanti-Blue reagent (prepared by following manufacturer instructions; Invivogen, San Diego, CA) to the HEK-Blue TLR Nf-kB-SEAP cell reactions. All EC50 values (half-maximal effective concentration) are determined using proprietary data analysis software.
On the technique in general: A reporter such as luciferase makes a cellular process visible.

The next assay deals with T2, TLR7 (Homo sapiens, UniProt Q9NYK1).
T2 construct: host or cells: HEK-Blue cells (human HEK) co-expressing TLR7 and an NF-kB/AP1-inducible SEAP reporter
T2 sequence (Q9NYK1 27-1049): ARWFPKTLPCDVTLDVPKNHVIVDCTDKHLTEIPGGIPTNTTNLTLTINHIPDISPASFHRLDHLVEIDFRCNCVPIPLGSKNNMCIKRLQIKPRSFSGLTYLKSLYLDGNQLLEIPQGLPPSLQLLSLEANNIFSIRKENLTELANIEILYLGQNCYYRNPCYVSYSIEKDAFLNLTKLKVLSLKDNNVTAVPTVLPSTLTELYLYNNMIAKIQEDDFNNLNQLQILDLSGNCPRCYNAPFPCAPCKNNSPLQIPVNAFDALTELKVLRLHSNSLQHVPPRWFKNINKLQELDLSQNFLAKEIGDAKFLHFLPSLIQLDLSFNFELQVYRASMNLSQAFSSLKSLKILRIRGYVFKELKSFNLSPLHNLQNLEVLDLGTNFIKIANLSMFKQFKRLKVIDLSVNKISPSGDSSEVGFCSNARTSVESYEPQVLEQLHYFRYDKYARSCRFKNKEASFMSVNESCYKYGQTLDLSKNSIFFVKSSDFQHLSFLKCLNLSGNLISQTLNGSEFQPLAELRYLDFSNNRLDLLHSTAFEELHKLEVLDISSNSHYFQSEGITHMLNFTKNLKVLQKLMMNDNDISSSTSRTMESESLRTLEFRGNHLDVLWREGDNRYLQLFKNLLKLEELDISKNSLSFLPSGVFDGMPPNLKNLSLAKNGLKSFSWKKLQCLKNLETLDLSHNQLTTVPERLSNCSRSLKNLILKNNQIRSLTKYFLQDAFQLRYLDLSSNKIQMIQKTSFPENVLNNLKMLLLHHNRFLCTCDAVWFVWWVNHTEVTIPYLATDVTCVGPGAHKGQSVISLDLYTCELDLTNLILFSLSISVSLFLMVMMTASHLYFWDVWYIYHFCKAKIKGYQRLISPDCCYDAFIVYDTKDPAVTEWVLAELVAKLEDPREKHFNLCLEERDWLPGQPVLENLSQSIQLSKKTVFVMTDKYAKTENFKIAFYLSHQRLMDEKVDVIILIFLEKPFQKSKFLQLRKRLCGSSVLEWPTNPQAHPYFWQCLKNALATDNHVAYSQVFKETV
Briefly: In vitro human TLR7 binding reporter assay (HEK-Blue, NF-kB/AP1-inducible SEAP). The following applies: activity range symbols. It is filed as cell-based. The procedure: as §1, §2

Each structure is given as a SMILES string. Where only a bound is given, the exact number is not on record here.

In general, EC50 refers to the concentration that produces a half-maximal response. High values mean a need for much substance, low ones an effect from little substance.

Consider `Nc1nc2cc(-n3cccn3)ccc2c2[nH]c(CN3CC(c4ccccc4)CC3=O)nc12` (centres unmarked) [Compound 103], for which the EC50 at TLR8 and at TLR7 was above 100 µM each time.

Regarding `CCN(Cc1nc2c(N)nc3cc(C)ccc3c2[nH]1)C(C)=O` [Compound 104], the EC50 at TLR8 and at TLR7 was above 100 µM throughout.

With `CCNCc1nc2c(N)nc3cc(-c4cc[nH]n4)ccc3c2n1C` [Compound 106, 2-((Ethylamino)methyl)-1-methyl-7-(1H-pyrazol-3-yl)-1H-imidazo[4,5-c]quinolin-4-amine], the EC50 on TLR8 and on TLR7 was above 100 µM each time.

`CCN(Cc1nc2c(N)nc3cc(-n4cccn4)ccc3c2[nH]1)S(C)(=O)=O` [Compound 108, N-((4-Amino-7-(1H-pyrazol-1-yl)-1H-imidazo[4,5-c]quinolin-2-yl)methyl)-N-ethylmethanesulfonamide]: the concentration giving a half-maximal response (EC50) on TLR8 and on TLR7 was above 100 µM each time.

For the compound `CCN(Cc1nc2c(N)nc3cc(-c4cc[nH]n4)ccc3c2[nH]1)C(=O)OC(C)(C)C` [Compound 109, tert-Butyl ((4-amino-7-(1H-pyrazol-3-yl)-1H-imidazo[4,5-c]quinolin-2-yl)methyl)(ethyl)carbamate], the EC50 on TLR8 and at TLR7 was above 100 µM each time.

Consider `CCN(Cc1nc2c(N)nc3cc(-c4cc[nH]n4)ccc3c2[nH]1)C(=O)N(C)C` [Compound 110, 1-((4-Amino-7-(1H-pyrazol-3-yl)-1H-imidazo[4,5-c]quinolin-2-yl)methyl)-1-ethyl-3,3-dimethylurea], for which the 50% effective concentration (EC50) at TLR8 and on TLR7 was above 100 µM in each case.

Turning to `Nc1nc2cc(C(F)(F)F)ccc2c2[nH]c(CN3CCCC3=O)nc12` [Compound 163], the EC50 at TLR8 was above 100 µM; on TLR7 it was 20 to 100 µM.

For `CCN(Cc1nc2c(N)nc3ccccc3c2n1CCCC(=O)OC)C(C)=O` [Compound 164], the EC50 at TLR8 and on TLR7 was above 100 µM in each case.

For the compound `CCN(Cc1nc2c(N)nc3cc(-c4ccccc4)ccc3c2[nH]1)C(C)=O` [Compound 165, N-[(4-amino-7-phenyl-1H-imidazo[4,5-c]quinolin-2-yl)methyl]-N-ethylacetamide], the 50% effective concentration (EC50) at TLR8 and at TLR7 was above 100 µM each time.

For `CCN(Cc1nc2c(N)nc3cc(-c4cccnc4)ccc3c2[nH]1)C(C)=O` [Compound 166, N-[(4-amino-7-pyridin-3-yl-1H-imidazo[4,5-c]quinolin-2-yl)methyl]-N-ethylacetamide], the half-maximal effective concentration (EC50) on TLR8 and at TLR7 was above 100 µM each time.

With `CCN(Cc1nc2c(N)nc3cc(-c4ccncc4)ccc3c2[nH]1)C(C)=O` [Compound 167, N-[(4-amino-7-pyridin-4-yl-1H-imidazo[4,5-c]quinolin-2-yl)methyl]-N-ethylacetamide], the concentration for a half-maximal effect (EC50) on TLR8 and at TLR7 was above 100 µM throughout.

`CCN(Cc1nc2c(N)nc3cc(-c4cc(C)nn4C)ccc3c2[nH]1)C(C)=O` [Compound 168, N-[[4-amino-7-(2,5-dimethylpyrazol-3-yl)-1H-imidazo[4,5-c]quinolin-2-yl]methyl]-N-ethylacetamide]: the 50% effective concentration (EC50) at TLR8 and at TLR7 was above 100 µM each time.

As for `CCCn1cc(-c2ccc3c(c2)nc(N)c2nc(CN(CC)C(C)=O)[nH]c23)cn1` [Compound 169, N-[[4-amino-7-(1-propylpyrazol-4-yl)-1H-imidazo[4,5-c]quinolin-2-yl]methyl]-N-ethylacetamide], the EC50 at TLR8 and at TLR7 was above 100 µM each time.

Turning to `CCN(Cc1nc2c(N)nc3cc(C(C)C)ccc3c2[nH]1)C(C)=O` [Compound 170, N-[(4-amino-7-propan-2-yl-1H-imidazo[4,5-c]quinolin-2-yl)methyl]-N-ethylacetamide], the EC50 is above 100 µM on TLR8 and 20 to 100 µM at TLR7.

Consider `CCc1ccc2c(c1)nc(N)c1nc(CN(CC)C(C)=O)[nH]c12` [Compound 171, N-[(4-amino-7-ethyl-1H-imidazo[4,5-c]quinolin-2-yl)methyl]-N-ethylacetamide], for which the 50% effective concentration (EC50) is above 100 µM at TLR8 and 1 to 20 µM on TLR7.

Consider `CCCc1ccc2c(c1)nc(N)c1nc(CN(CC)C(C)=O)[nH]c12` [Compound 172, N-[(4-amino-7-propyl-1H-imidazo[4,5-c]quinolin-2-yl)methyl]-N-ethylacetamide], for which the figures for the EC50 on TLR8 and at TLR7 were above 100 µM and 1 to 20 µM, respectively.

In the case of `CCN(Cc1nc2c(N)nc3cc(C4CCCC4)ccc3c2[nH]1)C(C)=O` [Compound 173, N-[(4-amino-7-cyclopentyl-1H-imidazo[4,5-c]quinolin-2-yl)methyl]-N-ethylacetamide], the EC50 at TLR8 and on TLR7 was above 100 µM throughout.

For the compound `CCN(Cc1nc2c(N)nc3cc(-c4cccnc4F)ccc3c2[nH]1)C(C)=O` [Compound 175, N-[[4-amino-7-(2-fluoropyridin-3-yl)-1H-imidazo[4,5-c]quinolin-2-yl]methyl]-N-ethylacetamide], the concentration giving a half-maximal response (EC50) on TLR8 and at TLR7 was above 100 µM throughout.

Turning to `CCN(Cc1nc2c(N)nc3ccccc3c2[nH]1)C(C)=O` [Compound 176], the EC50 on TLR8 and at TLR7 was above 100 µM each time.

In the case of `CCN(Cc1nc2c(N)nc3cc(Br)ccc3c2[nH]1)C(C)=O` [Compound 177], the half-maximal effective concentration (EC50) at TLR8 and on TLR7 was above 100 µM in each case.

As for `CCN(Cc1nc2c(N)nc3cc(Cl)ccc3c2[nH]1)C(C)=O` [Compound 179, N-[(4-amino-7-chloro-1H-imidazo[4,5-c]quinolin-2-yl)methyl]-N-ethylacetamide], the half-maximal effective concentration (EC50) at TLR8 and at TLR7 was above 100 µM in each case.

As to `CCN(Cc1nc2c(N)nc3cc(-n4cccn4)ccc3c2[nH]1)C(C)=O` [Compound 180, N-[(4-amino-7-pyrazol-1-yl-1H-imidazo[4,5-c]quinolin-2-yl)methyl]-N-ethylacetamide], the concentration for a half-maximal effect (EC50) at TLR8 and on TLR7 was above 100 µM throughout.

Regarding `CCN(Cc1nc2c(N)nc3cc(C4=CCCC4)ccc3c2[nH]1)C(C)=O` [Compound 183], the half-maximal effective concentration (EC50) at TLR8 and at TLR7 was above 100 µM each time.

Regarding `CC(=O)N(C)Cc1nc2c(N)nc3ccccc3c2[nH]1` [Compound 187], the EC50 on TLR8 is 20 to 100 µM; at TLR7, 1 to 20 µM.

With `COC(=O)CCCn1c(CN(C)C(C)=O)nc2c(N)nc3ccccc3c21` [Compound 188], the half-maximal effective concentration (EC50) at TLR8 and on TLR7 was above 100 µM each time.
